Paper PMC3561163 (PLoS Neglected Tropical Diseases, 2013)
Marks after values point to notes of the source that are not given here.

Tests used:
[1] = system: PBMCs from YF-17DD vaccinees; assay type: cell-based, human
[2] = system: 14 different HLA class II molecules; assay type: binding, human
[3] = system: CD4^+ depleted PBMCs from YF-17DD vaccinees; assay type: cell-based, human
[4] = system: CD8^+ T-cells isolated from HLA-A*0201 positive individuals; assay type: cell-based, human

For `CC[C@H](C)[C@H](NC(=O)CNC(=O)[C@H](CCCCN)NC(=O)[C@H](CC(N)=O)NC(=O)[C@@H](NC(=O)[C@H](C)NC(=O)[C@H](C)NC(=O)[C@@H](NC(=O)[C@H](CC(C)C)NC(=O)[C@H](CC(=O)O)NC(=O)[C@H](CC(=O)O)NC(=O)[C@H](C)N)[C@@H](C)O)[C@@H](C)CC)C(=O)N[C@@H](CC(C)C)C(=O)N[C@H](C(=O)N[C@H](C(=O)O)[C@@H](C)O)C(C)C` [Env337–351], the “ELISPOT Max” value [1] was 30 SFC/10^6 PBMC, the “ELISPOT Min” value [1] was 12 SFC/10^6 PBMC and the No. of responders [1] was 3. The “Recognition frequency (%) (Table S1)” value [1] was 17%, the “Level of peptide promiscuity” value [2] was “intermediate (key: low (affinity to 2 to 5 HLA class II molecules bound); intermediate (affinity to 6 to 9 HLA class II molecules bound); highly promiscuous (binding to ≥10 HLA molecules))” and the “Total DR bound” value [2] was 9.
For `CC[C@H](C)[C@H](NC(=O)CNC(=O)[C@H](CCCCN)NC(=O)[C@@H](N)CC(N)=O)C(=O)N[C@@H](CC(C)C)C(=O)N[C@H](C(=O)N[C@H](C(=O)N[C@H](C(=O)N[C@@H](CC(N)=O)C(=O)N1CCC[C@H]1C(=O)N[C@H](C(=O)N[C@@H](C)C(=O)N[C@@H](CO)C(=O)N[C@H](C(=O)N[C@@H](CC(N)=O)C(=O)O)[C@@H](C)O)[C@@H](C)CC)C(C)C)[C@@H](C)O)C(C)C` [Env345–359], the “IFN-γ SFC Average ± STDEV” value [3] was 315±160 SFC (CD4-depleted PBMCs/10^6), the “IFN-γ SFC Median” value [3] was 287 SFC (CD4-depleted PBMCs/10^6) and the “No. of responders (CD4-depleted PBMCs)” value [3] was 3. The “ELISPOT Max” value [1] was 271 SFC/10^6 PBMC, the “ELISPOT Min” value [1] was 10 SFC/10^6 PBMC and the No. of responders [1] was 9. For the same molecule, the “Recognition frequency (%) (Table S1)” value [1] was 33%, the “Level of peptide promiscuity” value [2] was “highly promiscuous (key: low (affinity to 2 to 5 HLA class II molecules bound); intermediate (affinity to 6 to 9 HLA class II molecules bound); highly promiscuous (binding to ≥10 HLA molecules))” and the “Total DR bound” value [2] was 13.
In the case of `CC[C@H](C)[C@H](NC(=O)[C@H](CC(C)C)NC(=O)[C@@H](NC(=O)[C@H](CCC(=O)O)NC(=O)[C@@H](N)CC(=O)O)C(C)C)C(=O)N[C@@H](CCC(=O)O)C(=O)N[C@H](C(=O)N[C@@H](CC(N)=O)C(=O)N1CCC[C@H]1C(=O)N1CCC[C@H]1C(=O)N[C@@H](Cc1ccccc1)C(=O)NCC(=O)N[C@@H](CC(=O)O)C(=O)N[C@@H](CO)C(=O)N[C@@H](Cc1ccc(O)cc1)C(=O)O)C(C)C` [Env361–375], the “IFN-γ SFC Average ± STDEV” value [3] is reported as 16±0 SFC (CD4-depleted PBMCs/10^6), the “IFN-γ SFC Median” value [3] is reported as 16 SFC (CD4-depleted PBMCs/10^6) and the “No. of responders (CD4-depleted PBMCs)” value [3] is reported as 2. For the same molecule, the “ELISPOT Max” value [1] was 203 SFC/10^6 PBMC, the “ELISPOT Min” value [1] was 14 SFC/10^6 PBMC and the No. of responders [1] was 4. The “Recognition frequency (%) (Table S1)” value [1] was 15% and the “Total DR bound” value [2] was 10.
`CSCC[C@H](NC(=O)[C@@H](NC(=O)[C@@H](N)C(C)C)C(C)C)C(=O)N[C@H](C(=O)N[C@@H](CO)C(=O)N[C@@H](CC(C)C)C(=O)N[C@@H](C)C(=O)N[C@@H](CC(C)C)C(=O)N[C@H](C(=O)NCC(=O)N[C@@H](C)C(=O)N[C@@H](C)C(=O)N[C@@H](CC(C)C)C(=O)N[C@@H](Cc1c[nH]cn1)C(=O)N1CCC[C@H]1C(=O)O)C(C)C)[C@@H](C)O` [NS2b97–111] was tested, and the “ELISPOT Max” value [1] was 26 SFC/10^6 PBMC, the “ELISPOT Min” value [1] was 10 SFC/10^6 PBMC and the No. of responders [1] was 6. The “Recognition frequency (%) (Table S1)” value [1] was 10%, the “Level of peptide promiscuity” value [2] was “intermediate (key: low (affinity to 2 to 5 HLA class II molecules bound); intermediate (affinity to 6 to 9 HLA class II molecules bound); highly promiscuous (binding to ≥10 HLA molecules))” and the “Total DR bound” value [2] was 7.
In the case of `CC[C@H](C)[C@H](NC(=O)[C@@H](NC(=O)[C@H](CCC(=O)O)NC(=O)CNC(=O)[C@H](CC(N)=O)NC(=O)[C@H](CCCNC(=N)N)NC(=O)[C@H](CC(N)=O)NC(=O)[C@@H](NC(=O)[C@@H](NC(=O)[C@@H]1CCCN1C(=O)[C@H](CO)NC(=O)CNC(=O)[C@H](CO)NC(=O)[C@@H](NC(=O)CN)[C@@H](C)O)[C@@H](C)CC)C(C)C)C(C)C)C(=O)O` [NS3_137–151], the “No. of responders (CD4-depleted PBMCs)” value [3] is reported as 0, the “ELISPOT Max” value [1] is reported as 137 SFC/10^6 PBMC and the “ELISPOT Min” value [1] is reported as 18 SFC/10^6 PBMC. The No. of responders [1] was 5, the “Recognition frequency (%) (Table S1)” value [1] was 11% and the “Total DR bound” value [2] was 1.
For `CSCC[C@H](NC(=O)[C@H](C)NC(=O)[C@H](CCSC)NC(=O)[C@@H](N)CCCNC(=N)N)C(=O)N[C@H](C(=O)N[C@@H](CC(=O)O)C(=O)N[C@H](C(=O)N[C@H](C(=O)N1CCC[C@H]1C(=O)N[C@@H](Cc1ccccc1)C(=O)NCC(=O)N[C@@H](CCC(N)=O)C(=O)N[C@@H](CCC(N)=O)C(=O)N[C@@H](CCCNC(=N)N)C(=O)N[C@H](C(=O)O)C(C)C)[C@@H](C)O)[C@@H](C)O)[C@@H](C)O` [NS5_341–355], the “No. of responders (CD4-depleted PBMCs)” value [3] was 0, the “ELISPOT Max” value [1] was 267 SFC/10^6 PBMC and the “ELISPOT Min” value [1] was 27 SFC/10^6 PBMC. For the same molecule, the No. of responders [1] was 6, the “Recognition frequency (%) (Table S1)” value [1] was 12% and the “Level of peptide promiscuity” value [2] was “low (key: low (affinity to 2 to 5 HLA class II molecules bound); intermediate (affinity to 6 to 9 HLA class II molecules bound); highly promiscuous (binding to ≥10 HLA molecules))”. The “Total DR bound” value [2] was 4.
In the case of `CC(C)[C@H](NC(=O)[C@H](CCCNC(=N)N)NC(=O)[C@H](CCC(N)=O)NC(=O)[C@H](CCC(N)=O)NC(=O)CNC(=O)[C@H](Cc1ccccc1)NC(=O)[C@@H]1CCCN1C(=O)[C@@H](NC(=O)[C@@H](NC(=O)[C@H](CC(=O)O)NC(=O)[C@@H](N)[C@@H](C)O)[C@@H](C)O)[C@@H](C)O)C(=O)N[C@@H](Cc1ccccc1)C(=O)N[C@@H](CCCCN)C(=O)N[C@@H](CCC(=O)O)C(=O)N[C@@H](CCCCN)C(=O)O` [NS5_345–359], the “IFN-γ SFC Average ± STDEV” value [3] is reported as 66±71 SFC (CD4-depleted PBMCs/10^6), the “IFN-γ SFC Median” value [3] is reported as 32 SFC (CD4-depleted PBMCs/10^6) and the “No. of responders (CD4-depleted PBMCs)” value [3] is reported as 3. The “ELISPOT Max” value [1] was 914 SFC/10^6 PBMC, the “ELISPOT Min” value [1] was 55 SFC/10^6 PBMC and the No. of responders [1] was 8. For the same molecule, the “Recognition frequency (%) (Table S1)” value [1] was 17%, the “Level of peptide promiscuity” value [2] was “low (key: low (affinity to 2 to 5 HLA class II molecules bound); intermediate (affinity to 6 to 9 HLA class II molecules bound); highly promiscuous (binding to ≥10 HLA molecules))” and the “Total DR bound” value [2] was 2.
For `CC[C@H](C)[C@H](NC(=O)[C@H](C)NC(=O)[C@H](CCCNC(=N)N)NC(=O)[C@H](CO)NC(=O)CNC(=O)[C@H](CCCCN)NC(=O)[C@H](C)NC(=O)[C@H](CCCCN)NC(=O)CNC(=O)[C@H](Cc1ccccc1)NC(=O)[C@@H](N)CCC(=O)O)C(=O)N[C@@H](Cc1c[nH]c2ccccc12)C(=O)N[C@@H](Cc1ccc(O)cc1)C(=O)N[C@@H](CCSC)C(=O)N[C@@H](Cc1c[nH]c2ccccc12)C(=O)O` [NS5_465–479], the “IFN-γ SFC Average ± STDEV” value [3] was 168±0 SFC (CD4-depleted PBMCs/10^6), the “IFN-γ SFC Median” value [3] was 168 SFC (CD4-depleted PBMCs/10^6) and the “No. of responders (CD4-depleted PBMCs)” value [3] was 2. For the same molecule, the “ELISPOT Max” value [1] was 1593 SFC/10^6 PBMC, the “ELISPOT Min” value [1] was 10 SFC/10^6 PBMC and the No. of responders [1] was 6. For the same molecule, the “Recognition frequency (%) (Table S1)” value [1] was 12%, the “Level of peptide promiscuity” value [2] was “intermediate (key: low (affinity to 2 to 5 HLA class II molecules bound); intermediate (affinity to 6 to 9 HLA class II molecules bound); highly promiscuous (binding to ≥10 HLA molecules))” and the “Total DR bound” value [2] was 7.
With `CC[C@H](C)[C@H](NC(=O)[C@H](C)NC(=O)[C@H](CCCNC(=N)N)NC(=O)[C@H](CO)NC(=O)CNC(=O)[C@H](CCCCN)NC(=O)[C@H](C)N)C(=O)N[C@@H](Cc1c[nH]c2ccccc12)C(=O)N[C@@H](Cc1ccc(O)cc1)C(=O)N[C@@H](CCSC)C(=O)N[C@@H](Cc1c[nH]c2ccccc12)C(=O)N[C@@H](CC(C)C)C(=O)NCC(=O)N[C@@H](C)C(=O)N[C@@H](CCCNC(=N)N)C(=O)O` [NS5_469–483] the “ELISPOT Max” value [1] was 1828 SFC/10^6 PBMC, the “ELISPOT Min” value [1] was 13 SFC/10^6 PBMC and the No. of responders [1] was 8. For the same molecule, the “Recognition frequency (%) (Table S1)” value [1] was 17%, the “Level of peptide promiscuity” value [2] was “highly promiscuous (key: low (affinity to 2 to 5 HLA class II molecules bound); intermediate (affinity to 6 to 9 HLA class II molecules bound); highly promiscuous (binding to ≥10 HLA molecules))” and the “Total DR bound” value [2] was 10.
In the case of `CC(C)C[C@H](NC(=O)[C@H](C)NC(=O)[C@H](CCC(=O)O)NC(=O)[C@H](Cc1ccccc1)NC(=O)[C@H](CCC(=O)O)NC(=O)[C@H](CC(C)C)NC(=O)[C@H](Cc1ccc(O)cc1)NC(=O)[C@H](CCCNC(=N)N)NC(=O)[C@H](C)NC(=O)CN)C(=O)NCC(=O)N[C@@H](Cc1ccccc1)C(=O)N[C@@H](CC(C)C)C(=O)N[C@@H](CC(N)=O)C(=O)N[C@@H](CCC(=O)O)C(=O)O` [NS5_481–495], the “IFN-γ SFC Average ± STDEV” value [3] is reported as 95±0 SFC (CD4-depleted PBMCs/10^6), the “IFN-γ SFC Median” value [3] is reported as 95 SFC (CD4-depleted PBMCs/10^6) and the “No. of responders (CD4-depleted PBMCs)” value [3] is reported as 2. For the same molecule, the “ELISPOT Max” value [1] was 1022 SFC/10^6 PBMC, the “ELISPOT Min” value [1] was 13 SFC/10^6 PBMC and the No. of responders [1] was 11. For the same molecule, the “Recognition frequency (%) (Table S1)” value [1] was 23%, the “Level of peptide promiscuity” value [2] was “highly promiscuous (key: low (affinity to 2 to 5 HLA class II molecules bound); intermediate (affinity to 6 to 9 HLA class II molecules bound); highly promiscuous (binding to ≥10 HLA molecules))” and the “Total DR bound” value [2] was 10.
For LWNGPMAVS [NS4b77–85], the “T-cell activation by 9-mers covering NS4b77–91” value [1] was “induced the most T-cell activation” and the “yield of cellular proliferation of the CD8^+ T-cell population expanded by aAPCs” value [4] was 2×10^6.
